System: human fetal liver cells
Assay: Colony formation assay (Stem cell CFU kit, 11 day) of fetal liver cells
Assay type: cell-based
Conditions: FIG. 9

In the case of “NKGTQQYTDQ (OTHER INFORMATION: Peptide fragments derived from parvovirus capsid particles) [Peptide IV]”, the “inhibition of hematopoiesis and cell growth (colony formation) by deletion series peptides” value is reported as “significantly inhibit hematopoiesis and cell growth”.

QQY [Peptide VIII] was tested, and the “inhibition of hematopoiesis and cell growth (colony formation) by deletion series peptides” value was “significantly inhibit hematopoiesis and cell growth”.
